The results in this text go back to US20250213571A1, “TYK2 INHIBITORS AND USES THEREOF” (Alumis Inc., priority 2022, published 2025).

Counter-ions that a name gives are not always drawn.

The target in one assay is JAK1 JH2 (Homo sapiens (Human), UniProt P23458). Kind of assay: JAK1 JH2 binding (Kd, Table 2). As to conditions: JH2 domain.
For assay [1], the target named is human TYK2 (JH2domain-pseudokinase) (Homo sapiens (Human), UniProt P29597). In words: TYK2 JH2 domain binding assay (KINOMEscan). How it is done:
Binding constants for the compounds described herein against the JH2 domain were determined by the following protocol for a KINOMEscan® assay (DiscoveRx). A fusion protein of a partial length construct of human TYK2 (JH2domain-pseudokinase) (amino acids G556 to D888 based on reference sequence NP_003322.3) and the DNA binding domain of NFkB was expressed in transiently transfected HEK293 cells. From these HEK 293 cells, extracts were prepared in M-PER extraction buffer (Pierce) in the presence of Protease Inhibitor Cocktail Complete (Roche) and Phosphatase Inhibitor Cocktail Set II (Merck) per manufacturers' instructions. The TYK2 (JH2domain-pseudokinase) fusion protein was labeled with a chimeric double-stranded DNA tag containing the NFkB binding site fused to an amplicon for qPCR readout, which was added directly to the expression extract (the final concentration of DNA-tag in the binding reaction is 0.1 nM).
Streptavidin-coated magnetic beads (Dynal M280) were treated with a biotinylated small molecule ligand for 30 minutes at room temperature to generate affinity resins the binding assays. The liganded beads were blocked with excess biotin and washed with blocking buffer (SeaBlock (Pierce), 1% BSA, 0.05% Tween 20, 1 mM DTT) to remove unbound ligand and to reduce nonspecific binding.
The binding reaction was assembled by combining 16 μl of DNA-tagged kinase extract, 3.8 μl liganded affinity beads, and 0.18 μl test compound (PBS/0.05% Tween 20/10 mM DTT/0.1% BSA/2 μg/ml sonicated salmon sperm DNA)]. Extracts were used directly in binding assays without any enzyme purification steps at a ≥10,000-fold overall stock dilution (final DNA-tagged enzyme concentration <0.1 nM). Extracts were loaded with DNA-tag and diluted into the binding reaction in a two-step process. First extracts were diluted 1:100 in 1×binding buffer (PBS/0.05% Tween 20/10 mM DTT/0.1% BSA/2 […] sonicated salmon sperm DNA) containing 10 nM DNA-tag. This dilution was allowed to equilibrate at room temperature for 15 minutes and then subsequently diluted 1:100 in 1× binding buffer. Test compounds were prepared as 111× stocks in 100% DMSO. Kds were determined using an 11-point 3-fold compound dilution series with three DMSO control points. All compounds for Kd measurements were distributed by acoustic transfer (non-contact dispensing) in 100% DMSO. The compounds were then diluted directly into the assays such that the final concentration of DMSO was 0.9%. All reactions were performed in polypropylene 384-well plates. Each was a final volume of 0.02 mL. Assays were incubated with shaking for 1 hour at room temperature. Then the beads were pelleted and washed with wash buffer (1×PBS, 0.05% Tween 20) to remove displaced kinase and test compound. The washed based were resuspended in elution buffer (1 λPBS, 0.05% Tween […] non-biotinylated affinity ligand) and incubated at room temperature with shaking for 30 minutes. The kinase concentration in the eluates was measured by qPCR. qPCR reactions were assembled by adding 2.5 μL of kinase eluate to 7.5 μL of qPCR master mix containing […] amplicon primers and 0.15 μM amplicon probe. The qPCR protocol consisted of a 10 minute hot start at 95° C., followed by 35 cycles of 95° C. for 15 seconds, 60° C. for 1 minute.
Test compounds were prepared as 111× stocks in 100% DMSO. Kds were determined using an 11-point 3-fold compound dilution series with three DMSO control points. All compounds for Kd measurements were distributed by acoustic transfer (non-contact dispensing) in 100% DMSO. The compounds were then diluted directly into the assays such that the final concentration of DMSO was 0.9%. The Kds were determined using a compound top concentration of 30,000 nM. Kd measurements were performed in duplicate.
Binding constants (Kds) were calculated with a standard dose-response curve using the Hill equation: […]
The Hill Slope was set to −1. […]

A further assay has as its target TYK2 JH1 (Homo sapiens (Human), UniProt P29597). Kind of assay: TYK2 JH1 binding (Kd, Table 2). As to conditions: JH1 domain.

Chain of human TYK2 (JH2domain-pseudokinase) (P29597 556-888): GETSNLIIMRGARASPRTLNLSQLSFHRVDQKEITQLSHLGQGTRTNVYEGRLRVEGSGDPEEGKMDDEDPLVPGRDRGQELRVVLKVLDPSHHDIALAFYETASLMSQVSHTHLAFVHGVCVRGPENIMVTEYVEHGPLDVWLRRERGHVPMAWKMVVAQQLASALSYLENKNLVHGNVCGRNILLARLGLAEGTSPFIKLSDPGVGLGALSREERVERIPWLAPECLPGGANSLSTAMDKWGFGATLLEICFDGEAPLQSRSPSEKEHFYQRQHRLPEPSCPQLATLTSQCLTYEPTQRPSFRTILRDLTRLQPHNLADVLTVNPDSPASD
Chain of JAK1 JH2 (P23458 583-855): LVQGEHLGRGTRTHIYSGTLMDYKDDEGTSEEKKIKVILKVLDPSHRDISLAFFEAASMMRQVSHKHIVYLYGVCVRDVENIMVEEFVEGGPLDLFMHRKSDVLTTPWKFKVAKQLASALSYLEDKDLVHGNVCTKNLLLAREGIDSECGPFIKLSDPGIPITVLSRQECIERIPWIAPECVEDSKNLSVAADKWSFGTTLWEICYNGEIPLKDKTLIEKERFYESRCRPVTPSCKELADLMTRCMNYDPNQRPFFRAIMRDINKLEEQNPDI
Chain of TYK2 JH1 (P29597 897-1176): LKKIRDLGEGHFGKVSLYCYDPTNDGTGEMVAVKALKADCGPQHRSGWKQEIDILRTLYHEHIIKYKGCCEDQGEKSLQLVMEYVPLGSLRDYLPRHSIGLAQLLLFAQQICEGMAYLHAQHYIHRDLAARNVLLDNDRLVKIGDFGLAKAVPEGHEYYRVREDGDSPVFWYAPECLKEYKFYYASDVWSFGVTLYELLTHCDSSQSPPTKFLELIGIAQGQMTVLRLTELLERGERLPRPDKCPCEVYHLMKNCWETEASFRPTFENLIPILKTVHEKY

By Kd is commonly meant the constant that tells how readily two partners part at equilibrium. Low readings indicate higher affinity, high ones lower affinity. In the case of `CNc1cc2nc3c(cnn13)C(=O)N[C@H](C(C)(C)O)COCc1cc(c3nnn(C)c3c1)N2` [Compound 16], the Kd at JAK1 JH2 is ≥ 30000 nM; in assay [1] it was < 10 nM; at TYK2 JH1, ≥ 30000 nM.

On to `CNc1cc2nn3c(cnc13)C(=O)N[C@H](C)C[S+]([O-])Cc1cc(c3nnn(C)c3c1)N2` (stereo partly drawn) [Compound 58], for which the dissociation constant Kd in assay [1] is < 10 nM.

Take `CNc1nc2nc3c(n[nH]c13)C(=O)N[C@H](C)COCc1cc(c3nnn(C)c3c1)N2` [Compound 59]: in assay [1], the Kd was < 10 nM.

For `CNc1cc2nc3c(cnn13)C(=O)N[C@H](C)COCc1cc(c3nn(C)cc3c1)N2` [Compound 35], the Kd on JAK1 JH2 is 10 to 1000 nM; in assay [1], < 10 nM; at TYK2 JH1, ≥ 30000 nM.

With `CNc1cc2nc3c(cnn13)C(=O)NC(C(F)(F)F)COCc1cc(c3nnn(C)c3c1)N2` (stereo not drawn) [Compound 92], the equilibrium dissociation constant (Kd) on JAK1 JH2 was 10000 to 30000 nM; in assay [1], < 10 nM; at TYK2 JH1, ≥ 30000 nM.

For `C[C@@H]1COCc2cc(c3nnn(C)c3c2)Nc2cn3c(cnc3cn2)C(=O)N1` [Compound 77], in assay [1], the Kd lay in the range of 1000 to 10000 nM.

For `CNc1cc2nn3c(cnc13)C(=O)N[C@H](C)COc1cccc3ccc(nc13)N2` [Compound 69], the Kd in assay [1] is < 10 nM.

`CNc1cc2nc3c(cnn13)C(=O)NC(C(F)(F)F)COCc1cc(c3c(c1)nnn3C)N2` (stereo not drawn) [Compound 95]: the equilibrium dissociation constant (Kd) at JAK1 JH2 was ≥ 30000 nM; in assay [1] it was < 10 nM; at TYK2 JH1, ≥ 30000 nM.

With `CNc1cc2nn3c(cnc13)C(=O)N[C@H](C)CSCc1cc(c3nnn(C)c3c1)N2` [Compound 55], in assay [1], the Kd is < 10 nM.

On to `CNc1cc2nc3c(cnn13)C(=O)N[C@H](CO)[C@@H](C)OCc1cc(c3nnn(C)c3c1)N2` [Compound 15], for which the Kd at JAK1 JH2 is 1000 to 10000 nM; in assay [1], < 10 nM; at TYK2 JH1, ≥ 30000 nM.

`CNc1nc2nc3c(nn(C)c13)C(=O)N[C@H](C)COCc1cc(c3nnn(C)c3c1)N2` [Compound 65]: in assay [1], the Kd was < 10 nM.

With `CNc1cc2nn3c(cnc13)C(=O)N[C@H](C)COCc1cc(c3cnn(C)c3c1)N2` [Compound 12, (7R,E)-3^1,7-Dimethyl-1^8-(methylamino)-3^1H-5-oxa-2,8-diaza-1(6,3)-imidazo[1,2-b]pyridazina-3(4,6)-indazolacyclononaphan-9-one], the Kd at JAK1 JH2 was 10 to 1000 nM; in assay [1], < 10 nM; on TYK2 JH1, 1000 to 10000 nM.

As for `Cc1nc2ccc3nn2c1C(=O)N[C@H](C)COCc1cc(c2nnn(C)c2c1)N3` [Compound 67], the Kd in assay [1] is < 10 nM.

For the compound `CNc1cc2nn3c(cnc13)C(=O)N[C@H](C)C(C)OCc1cc(c3nnn(C)c3c1)N2` (stereo partly drawn) [Compound 90], the results for the equilibrium dissociation constant (Kd) (on JAK1 JH2; in assay [1]; at TYK2 JH1) were 10 to 1000 nM, < 10 nM and ≥ 30000 nM, respectively.

Consider `CNc1cc2nn3c(cnc13)C(=O)N[C@H](C)COc1cnnc3ccc(cc13)N2` [Compound 80], for which the Kd (at JAK1 JH2; in assay [1]; at TYK2 JH1) was ≥ 30000 nM in each case.

Consider `C[C@@H]1COCc2cc(c3nnn(C)c3c2)Nc2ccn3ncc(c3n2)C(=O)N1` [Compound 54], for which, in assay [1], the Kd was < 10 nM.

For `CNc1cc2nn3c(cnc13)C(=O)N[C@H](C)COCc1cc(cc3cn[nH]c13)N2` [Compound 98], the Kd was 10 to 1000 nM at JAK1 JH2, < 10 nM in assay [1] and 10 to 1000 nM on TYK2 JH1.

As to `CNc1cc2nn3c(cnc13)C(=O)N[C@H](C)COCc1cc(c3c(cnn3C)c1)N2` [Compound 14, (7R,E)-3′,7-Dimethyl-1^8-(methylamino)-3^1H-5-oxa-2,8-diaza-1(6,3)-imidazo[1,2-b]pyridazina-3(7,5)-indazolacyclononaphan-9-one], the results for the Kd (on JAK1 JH2; in assay [1]; on TYK2 JH1) were 10000 to 30000 nM, < 10 nM and 10000 to 30000 nM, respectively.

Consider `CNc1cc2nn3c(cnc13)C(=O)N[C@H](C)COc1ccnc3ccc(cc13)N2` [Compound 60], for which the Kd at JAK1 JH2 was 10 to 1000 nM; in assay [1], < 10 nM; at TYK2 JH1, 10000 to 30000 nM.

Consider `CNc1cc2nc3c(cnn13)C(=O)N[C@H](C)[C@H](C)OCc1cc(c3c(c1)nnn3C)N2` [Compound 93], for which the values for the Kd (on JAK1 JH2; in assay [1]; on TYK2 JH1) were 1000 to 10000 nM, < 10 nM and ≥ 30000 nM, respectively.

Regarding `CNc1cc2nc3c(cnn13)C(=O)N[C@H](C)COCc1cc(c3cnn(C)c3c1)N2` [Compound 52], the Kd at JAK1 JH2 was 1000 to 10000 nM; in assay [1], < 10 nM; on TYK2 JH1, 10000 to 30000 nM.

On to `CNc1nc2cn3c(cnc13)C(=O)N[C@H](C)COCc1cc(c3nnn(C)c3c1)N2` [Compound 76], for which the Kd in assay [1] was in the range of 1000 to 10000 nM.

As to `CNc1cc2nn3c(cnc13)C(=O)N[C@H](C)COc1ccnc3cnc(cc13)N2` [Compound 63, (12R)-12-methyl-24-(methylamino)-14-oxa-2,4,5,7,11,18,21-heptaazapentacyclo[13.6.2.2^(3,6.0^(5,9.0^(19,23]pentacosa-1(22),3,6,8,15,17,19(23),20,24-nonaen-10-one hydrochloride], the Kd in assay [1] is < 10 nM.

Take `CNc1cc2nn3c(cnc13)C(=O)N[C@H](C)CNc1ccnc3ccc(cc13)N2` [Compound 61, (12R)-12-methyl-24-(methylamino)-2,4,5,7,11,14,18-heptaazapentacyclo[13.6.2.2^{3,6}0.^{5,9}0.^{19,23}]pentacosa-1(21),3,6,8,15,17,19,22,24-nonaen-10-one]: in assay [1], the Kd is < 10 nM.

As for `CNc1nc2nc3c(n(C)nc13)C(=O)N[C@H](C)COCc1cc(c3nnn(C)c3c1)N2` [Compound 70], the Kd in assay [1] was < 10 nM.

As to `CNc1cc2nn3c(cnc13)C(=O)N[C@H](C)COCc1cc(cc3nc[nH]c13)N2` [Compound 97, (14R)-14-methyl-21-(methylamino)-12-oxa-2,6,8,15,19,23,24-heptaazapentacyclo[15.5.2.1^(3,10.0^(5,9.0^(20,24]pentacosa-1(23),3(25),4,6,9,17,19,21-octaen-16-one hydrochloride], the Kd on JAK1 JH2 is 10 to 1000 nM; in assay [1] it was < 10 nM; at TYK2 JH1, 1000 to 10000 nM.

In the case of `CNc1cc2nn3c(cnc13)C(=O)N[C@H](C)COc1ncnc3cc(OC)c(cc13)N2` [Compound 56], the Kd in assay [1] was < 10 nM.

With `CNc1cc2nn3c(cnc13)C(=O)N[C@H](C)COCc1cc(cn3ccnc13)N2` [Compound 99, (14R)-14-methyl-21-(methylamino)-12-oxa-2,5,8,15,19,23,24-heptaazapentacyclo[15.5.2.1^(3,10.0^(5,9.0^(20,24]pentacosa-1(23),3,6,8,10(25),17,19,21-octaen-16-one hydrochloride], in assay [1], the Kd was < 10 nM.

In assay [1], `C[C@@H]1COCc2cc(c3nnn(C)c3c2)Nc2ccc3ncc(n3c2)C(=O)N1` [Compound 71] displayed an equilibrium dissociation constant (Kd) of 10 to 1000 nM.

As to `CNc1cc2nn3c(cnc13)C(=O)N[C@H](C)CS(=O)(=O)Cc1cc(c3nnn(C)c3c1)N2` [Compound 57], in assay [1], the dissociation constant Kd is < 10 nM.

In the case of `CNc1cc2nn3c(cnc13)C(=O)N[C@H](C)COc1cncc3ccc(cc13)N2` [Compound 68], the Kd in assay [1] is < 10 nM.

Take `CNc1cc2nn3c(cnc13)C(=O)N[C@H](C)COc1nccc3ccc(cc13)N2` [Compound 62]: the Kd in assay [1] was < 10 nM.

In the case of `CNc1cc2nn3c(cnc13)C(=O)N[C@H](C)CNc1ncnc3ccc(cc13)N2` [Compound 66], the Kd in assay [1] is < 10 nM.

On to `CNc1cc2nn3c(cnc13)C(=O)N[C@H](C)COc1cccc3ncc(cc13)N2` [Compound 64], for which the Kd in assay [1] was < 10 nM.

The compound `Cc1nc2ccc3cn2c1C(=O)N[C@H](C)COCc1cc(c2nnn(C)c2c1)N3` [Compound 75] came in with a Kd in assay [1] of 10 to 1000 nM.
